Reference: US9573895B2, “Tetracycline compounds” (Tetraphase Pharmaceuticals, Inc., priority 2012, dated 2017)
Converted amounts (≈) assume the structure as drawn. Like-named read-outs stand apart in the source and are kept apart here.

Columns and labels:
Type in all cases: cell-based
[1] = tested on: Stenotrophomonas maltophilia SM256 (Cystic fibrosis isolate, MDR); assay: MIC assay SM256
[2] = tested on: Pseudomonas aeruginosa PA556 (Multiple-Mex efflux pump knockout strain)
[3] = tested on: Klebsiella pneumoniae KP153 (Tetracycline-resistant, tet(A), MDR, ESBL+); assay: MIC assay KP153; conditions: Table 5
KP194 7E+05 = assay: MIC assay KP194; conditions: Table 5
From the text: The assays were run as follows.

[4] = tested on: Klebsiella pneumoniae KP457 (2009 ESBL+, CTX-M, OXA); assay: MIC assay KP457
[5] = tested on: Escherichia coli EC155 (Tetracycline-resistant, tet(A))
[6] = tested on: Pseudomonas aeruginosa PA1145 (Strain used in murine pneumonia model); assay: MIC assay PA1145; conditions: control compounds, numeric
[7] = tested on: Acinetobacter baumannii AB250 (Cystic fibrosis isolate, MDR); assay: MIC assay AB250
[8] = tested on: Proteus mirabilis PM385 (Urine ESBL+ isolate); assay: MIC assay PM385
[9] = tested on: Pseudomonas aeruginosa PA555 (ATCC BAA-47, wild type strain PAO1); assay: MIC assay PA555
[10] = tested on: Streptococcus pneumoniae SP106 (ATCC 49619); assay: MIC assay SP106; conditions: Table 5
[11] = tested on: Enterococcus faecium EF404 (Blood isolate (US) tet(M)); assay: MIC assay EF404
[12] = tested on: Enterococcus faecalis EF327 (Wound isolate (US) tet(M)); assay: MIC assay EF327
[13] = tested on: Enterococcus faecalis EF159 (Tetracycline-resistant, tet(M)); assay: MIC assay EF159; conditions: Table 5
[14] = tested on: Burkholderia cenocepacia BC240 (Cystic fibrosis isolate, MDR); assay: MIC assay BC240
[15] = tested on: Staphylococcus aureus SA161 (HA-MRSA, tetracycline-resistant, tet(M)); assay: MIC assay SA161
[16] = tested on: Streptococcus pneumoniae SP160 (Tetracycline-resistant, tet(M)); assay: MIC assay SP160
[17] = tested on: Enterobacter cloacae EC603 (Urine isolate (Spain)); assay: MIC assay EC603
[18] = tested on: Escherichia coli EC107 (ATCC 25922); assay: MIC assay EC107

SMILES	MIC SM256 ([1]; Table 5)	MIC SM256 ([1]; Table 6)	MIC SM256 ([1]; Table 7)	MIC PA556 ([2]; Table 5)	MIC PA556 ([2]; Table 6)	MIC PA556 ([2]; Table 7)	MIC KP153 tetA [3]	MIC (KP194 7E+05)	MIC KP457 CTX-M-15 ([4]; Table 6)	MIC KP457 CTX-M-15 ([4]; Table 7)	MIC KP457 CTX-M-15 ([4]; control compounds, numeric)	MIC EC155 tetA ([5]; Table 5)	MIC EC155 tetA ([5]; Table 6)	MIC AB250 ([7]; Table 5)	MIC AB250 ([7]; Table 6)	MIC AB250 ([7]; Table 7)	MIC PM385 ([8]; Table 7)	MIC PM385 ([8]; control compounds, numeric)	MIC PA555 BAA-47 ([9]; control compounds, numeric)	MIC SP106 49619 [10]	further results
CN(C)c1cc(NC(=O)CNC(C)(C)C)c(O)c2c1C[C@H]1C[C@H]3[C@H](N(C)C)C(O)=C(C(N)=O)C(=O)[C@@]3(O)C(O)=C1C2=O [Tigecycline, tigecycline]	1 µg/mL (≈ 1.71 µM)	1 µg/mL (≈ 1.71 µM)	1 µg/mL (≈ 1.71 µM)	0.25 µg/mL (≈ 0.427 µM)	0.25 µg/mL (≈ 0.427 µM)	0.25 µg/mL (≈ 0.427 µM)	1 µg/mL (≈ 1.71 µM)	8 µg/mL (≈ 13.7 µM)	1 µg/mL (≈ 1.71 µM)	1 µg/mL (≈ 1.71 µM)	1 µg/mL (≈ 1.71 µM)	0.5 µg/mL (≈ 0.854 µM)	0.5 µg/mL (≈ 0.854 µM)	8 µg/mL (≈ 13.7 µM)	8 µg/mL (≈ 13.7 µM)	8 µg/mL (≈ 13.7 µM)	4 µg/mL (≈ 6.83 µM)	4 µg/mL (≈ 6.83 µM)	16 µg/mL (≈ 27.3 µM)	0.016 µg/mL (≈ 0.0273 µM)	MIC EC155 tetA ([5]; Table 7): 0.5 µg/mL (≈ 0.854 µM); MIC EC155 tetA ([5]; control compounds, numeric): 0.5 µg/mL (≈ 0.854 µM); MIC PA1145 Vivisource [6]: 16 µg/mL (≈ 27.3 µM); MIC PA555 BAA-47 ([9]; Table 7): 16 µg/mL (≈ 27.3 µM)
CN(C)[C@@H]1C(O)=C(C(N)=O)C(=O)[C@@]2(O)C(O)=C3C(=O)c4c(O)cccc4C[C@H]3C[C@@H]12 [Sancycline, sancycline]	1 µg/mL (≈ 2.41 µM)	1 µg/mL (≈ 2.41 µM)	1 µg/mL (≈ 2.41 µM)	1 µg/mL (≈ 2.41 µM)	1 µg/mL (≈ 2.41 µM)	1 µg/mL (≈ 2.41 µM)	32 µg/mL (≈ 77.2 µM)	32 µg/mL (≈ 77.2 µM)	8 µg/mL (≈ 19.3 µM)	8 µg/mL (≈ 19.3 µM)	–	32 µg/mL (≈ 77.2 µM)	32 µg/mL (≈ 77.2 µM)	16 µg/mL (≈ 38.6 µM)	16 µg/mL (≈ 38.6 µM)	16 µg/mL (≈ 38.6 µM)	8 µg/mL (≈ 19.3 µM)	8 µg/mL (≈ 19.3 µM)	32 µg/mL (≈ 77.2 µM)	0.25 µg/mL (≈ 0.603 µM)	MIC ([4]; Klebsiella pneumoniae, read-out: MIC KP457 CTX-M-15): 8 µg/mL (≈ 19.3 µM); MIC EC155 tetA ([5]; Table 7): 32 µg/mL (≈ 77.2 µM); MIC EC155 tetA ([5]; control compounds, numeric): 32 µg/mL (≈ 77.2 µM); MIC PA555 BAA-47 ([9]; Table 7): 32 µg/mL (≈ 77.2 µM)
CN(C)c1ccc(O)c2c1C[C@H]1C[C@H]3[C@H](N(C)C)C(O)=C(C(N)=O)C(=O)[C@@]3(O)C(O)=C1C2=O [Minocycline, minocycline]	0.5 µg/mL (≈ 1.09 µM)	0.5 µg/mL (≈ 1.09 µM)	0.5 µg/mL (≈ 1.09 µM)	–	–	–	8 µg/mL (≈ 17.5 µM)	32 µg/mL (≈ 69.9 µM)	8 µg/mL (≈ 17.5 µM)	8 µg/mL (≈ 17.5 µM)	8 µg/mL (≈ 17.5 µM)	8 µg/mL (≈ 17.5 µM)	8 µg/mL (≈ 17.5 µM)	8 µg/mL (≈ 17.5 µM)	8 µg/mL (≈ 17.5 µM)	8 µg/mL (≈ 17.5 µM)	16 µg/mL (≈ 35 µM)	16 µg/mL (≈ 35 µM)	16 µg/mL (≈ 35 µM)	0.015 µg/mL (≈ 0.0328 µM)	MIC EF404 tetM ([11]; Table 7): 8 µg/mL (≈ 17.5 µM); MIC EF404 tetM ([11]; control compounds, numeric): 8 µg/mL (≈ 17.5 µM); MIC EF327 tetM ([12]; Table 7): 32 µg/mL (≈ 69.9 µM); MIC EF327 tetM ([12]; control compounds, numeric): 32 µg/mL (≈ 69.9 µM); MIC EF159 tetM [13]: 16 µg/mL (≈ 35 µM); MIC BC240 ([14]; Table 5): 8 µg/mL (≈ 17.5 µM); MIC BC240 ([14]; Table 6): 8 µg/mL (≈ 17.5 µM); MIC BC240 ([14]; Table 7): 8 µg/mL (≈ 17.5 µM); MIC SA161 tetM ([15]; Table 5): 8 µg/mL (≈ 17.5 µM); MIC SA161 tetM ([15]; Table 6): 8 µg/mL (≈ 17.5 µM); MIC SA161 tetM ([15]; Table 7): 8 µg/mL (≈ 17.5 µM); MIC SA161 tetM ([15]; control compounds, numeric): 8 µg/mL (≈ 17.5 µM); MIC SP160 tetM ([16]; Table 4): 2 µg/mL (≈ 4.37 µM); MIC SP160 tetM ([16]; Table 5): 2 µg/mL (≈ 4.37 µM); MIC SP160 tetM ([16]; Table 7): 2 µg/mL (≈ 4.37 µM); MIC SP160 tetM ([16]; control compounds, numeric): 2 µg/mL (≈ 4.37 µM); MIC EC603 tetA ([17]; Table 6): 33 µg/mL (≈ 72.1 µM); MIC EC603 tetA ([17]; Table 7): 33 µg/mL (≈ 72.1 µM); MIC EC107 25922 ([18]; Table 5): 0.5 µg/mL (≈ 1.09 µM); MIC EC107 25922 ([18]; control compounds, numeric): 0.5 µg/mL (≈ 1.09 µM)
